8 compounds from patent US10370343B2, “[6,6] Fused bicyclic HDAC8 inhibitors” (FORMA Therapeutics, Inc., priority 2015, dated 2019) can be followed below.

Molecules are shown by their SMILES.

In experiment [1] the target is T1, Full length human recombinant HDAC8 protein (Homo sapiens, UniProt Q9BY41).
T1 construct: Full length human recombinant HDAC8 protein was expressed in baculoviral system; made in house
T1 sequence (Q9BY41 1-377): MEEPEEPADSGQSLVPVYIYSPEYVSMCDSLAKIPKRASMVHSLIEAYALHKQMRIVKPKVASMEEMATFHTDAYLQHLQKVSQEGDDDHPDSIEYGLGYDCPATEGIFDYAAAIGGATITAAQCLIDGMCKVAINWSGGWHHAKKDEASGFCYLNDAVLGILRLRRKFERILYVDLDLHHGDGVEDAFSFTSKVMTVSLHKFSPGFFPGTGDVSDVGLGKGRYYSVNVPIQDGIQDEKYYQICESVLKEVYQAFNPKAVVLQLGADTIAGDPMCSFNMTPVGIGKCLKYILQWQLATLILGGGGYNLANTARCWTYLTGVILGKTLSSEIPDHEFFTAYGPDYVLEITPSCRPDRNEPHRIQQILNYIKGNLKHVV
Nature of the experiment: In vitro histone deacetylase assay: enzymatic HDAC8 electrophoretic mobility shift assay. It counts as biochemical. To be noted: electrophoretic mobility shift assay; enzyme 1 nM; 2 μM fluorescently labeled peptide substrate RHKK(Ac)-NH2; 25° C.; 12 concentrations; read-out: HDAC8 IC50. Background: A gel shift assay detects complexes by their altered migration in electrophoresis.

The target of experiment [2] is T2, Recombinant N-terminal GST tag full-length human HDAC8 (Homo sapiens, UniProt Q9BY41).
T2 construct: Recombinant N-terminal GST tag full-length human HDAC8; purchased SignalChem H90-30G-1000; host or cells: baculovirus in Sf9 insect cells
T2 sequence (Q9BY41 1-377): T1 sequence (Q9BY41 1-377)
The experiment is described as follows: HDAC8 probe binding assay, time resolved fluorescence (TRF) format. The settings on record: compounds grouped by IC50 range (Table 2). Summed up: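 IC50 values come from four-parameter logistic fits of percent inhibition, scaled between DMSO (high) and no-enzyme (low) controls. Time-resolved fluorescence (ex 340, em 485/535 nm) was read after 16 h at room temperature. Enzyme was Sf9-expressed full-length human HDAC8 with an N-terminal GST tag, in a probe-binding format.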

As usually defined, the IC50 is the midpoint of a concentration-inhibition curve. Take `COc1ccc2oc(CN3C(=O)COc4ccc(C(=O)NO)cc43)nc2c1` [Compound I-285, N-hydroxy-4-((5-methoxybenzo[d]oxazol-2-yl)methyl)-3-oxo-3,4-dihydro-2H-benzo[b][1,4]oxazine-6-carboxamide]: the figures for the IC50 in experiment [1] and in experiment [2] were below 25 nM and at most 25 nM, respectively.

As to `Cc1ccc2oc(CN3C(=O)COc4ccc(C(=O)NO)cc43)nc2c1` [Compound I-286, N-hydroxy-4-((5-methylbenzo[d]oxazol-2-yl)methyl)-3-oxo-3,4-dihydro-2H-benzo[b][1,4]oxazine-6-carboxamide], the IC50 in experiment [1] and in experiment [2] was 25 to 100 nM throughout.

Take `O=C(NO)c1ccc2c(c1)N(Cc1nc3ccccc3o1)C(=O)CO2` [Compound I-288, 4-(benzo[d]oxazol-2-ylmethyl)-N-hydroxy-3-oxo-3,4-dihydro-2H-benzo[b][1,4]oxazine-6-carboxamide]: the IC50 in experiment [1] was below 25 nM; in experiment [2], at most 25 nM.

`O=C(NO)c1ccc2c(c1)N(Cc1nc3cc(Cl)ccc3s1)C(=O)CO2` [Compound I-290, 4-((5-chlorobenzo[d]thiazol-2-yl)methyl)-N-hydroxy-3-oxo-3,4-dihydro-2H-benzo[b][1,4]oxazine-6-carboxamide]: the IC50 in experiment [1] was below 25 nM; in experiment [2], at most 25 nM.

For the compound `Cc1ccc2nc(CN3C(=O)C(C)(C)Oc4ccc(C(=O)NO)cc43)oc2c1` [Compound I-292, N-hydroxy-2,2-dimethyl-4-((6-methylbenzo[d]oxazol-2-yl)methyl)-3-oxo-3,4-dihydro-2H-benzo[b][1,4]oxazine-6-carboxamide], the IC50 in experiment [1] and in experiment [2] was 25 to 100 nM each time.

On to `CC1(C)Oc2ccc(C(=O)NO)cc2N(Cc2nc3cc(Cl)ccc3s2)C1=O` [Compound I-296, 4-((5-chlorobenzo[d]thiazol-2-yl)methyl)-N-hydroxy-2,2-dimethyl-3-oxo-3,4-dihydro-2H-benzo[b][1,4]oxazine-6-carboxamide], for which the IC50 in experiment [1] was below 25 nM; in experiment [2] it was 25 to 100 nM.

In the case of `O=C(NO)c1ccc2c(c1)N(c1ccccc1)C(=O)CO2` [Compound I-357, N-hydroxy-3-oxo-4-phenyl-3,4-dihydro-2H-benzo[b][1,4]oxazine-6-carboxamide], the IC50 was in the range of 100 to 1000 nM in experiment [1] and 25 to 100 nM in experiment [2].

In the case of `COc1cccc(N2C(=O)COc3ccc(C(=O)NO)cc32)c1` [Compound I-358, N-hydroxy-4-(3-methoxyphenyl)-3-oxo-3,4-dihydro-2H-1,4-benzoxazine-6-carboxamide], the IC50 in experiment [1] and in experiment [2] was 25 to 100 nM throughout.
